Laboratory results as given in patent US20250144067A1, “PERSONALIZED STARVATION THERAPY FOR CANCER” (Faeth Therapeutics, Inc., priority 2021, published 2025).
Structures can show the parent of a compound that is named as a salt. Where two headings read alike, the source gives them in different places.

Experiments:
[1] = test system: NCI-H292 lung cancer cells; experiment: FDA drug screening, complete media vs cholesterol-free media without statin (TABLE 1); assay type: cell-based, human
[2] = test system: NCI-H292 lung cancer cells; experiment: FDA drug screening, complete media vs cholesterol-free media with simvastatin (TABLE 2); assay type: cell-based, human
[3] = Complete minus Cholesterol-free, greater than 0 enhanced anti-cancer activity, about 0 neutral, below 0 antagonists
[4] = NCI-H292 cells in cholesterol-free media without statin
[5] = NCI-H292 cells in complete media
[6] = NCI-H292 cells, FDA drug library screen, cholesterol-free media with simvastatin 0.04 μM
[7] = complete media minus cholesterol-free media + simvastatin (0.04 μM), >0 enhanced anti-cancer activity, about 0 neutral, <0 antagonist
[8] = Complete minus Cholesterol-free, >0 enhanced anti-cancer activity, about 0 neutral, <0 antagonist
[9] = NCI-H292 cells, cholesterol-free media without statin, FDA drug library screen
[10] = NCI-H292 cells, complete media, FDA drug library screen
[11] = NCI-H292 cells, FDA drug library screen, complete media
[12] = complete media minus cholesterol-free media + simvastatin, >0 enhanced anti-cancer activity, about 0 neutral, <0 antagonist
[13] = NCI-H292 cells, cholesterol-free media without statin
[14] = NCI-H292 cells, drug in cholesterol-free media with simvastatin 0.04 μM
[15] = NCI-H292 cells, drug in complete media
[16] = complete media vs cholesterol-free media + simvastatin (0.04 μM), >0 enhanced anti-cancer activity, about 0 neutral, <0 antagonist
[17] = Complete minus Cholesterol-free, greater than 0 enhanced anti-cancer activity, about 0 neutral, below 0 antagonist
[18] = NCI-H292 cells, FDA drug library screen, cholesterol-free media without statin
[19] = NCI-H292 cells, cholesterol-free media with simvastatin 0.04 μM, FDA drug library screen (TABLE 2)
[20] = NCI-H292 cells, complete media, FDA drug library screen (TABLE 2)
[21] = NCI-H292 cells, cholesterol-free media with simvastatin 0.04 μM, cell growth value in FDA drug screen
[22] = NCI-H292 cells, complete media, cell growth value in FDA drug screen

## CN(C)C(=N)N=C(N)N [Metformin]
[1]; [3]
  Difference: −0.64
[1]; [4]
  Cholesterol-free: 1.603
[1]; [5]
  Complete: 0.9656
[2]; [6]
  Cholesterol-free media + simvastatin (0.04 μM): 1.921
[2]; [7]
  Difference: −0.91

## CCCC(=O)O[C@]1(C(=O)CO)CC[C@H]2[C@@H]3CCC4=CC(=O)CC[C@]4(C)[C@H]3[C@@H](O)C[C@@]21C [Hydrocortisone 17-butyrate]
[1]; [8]
  Difference: −0.03
[1]; [9]
  Cholesterol-free: 1.162
[1]; [10]
  Complete: 1.133
[2]; [6]
  Cholesterol-free media + simvastatin (0.04 μM): 0.4747
[2]; [11]
  Complete Media: 0.6696
[2]; [12]
  Difference: 0.19

## Cn1cnc([N+](=O)[O-])c1Sc1ncnc2nc[nH]c12 [Azathioprine]
[1]; [8]
  Difference: −0.20
[1]; [13]
  Cholesterol-free: 0.5865
[1]; NCI-H292 cells, complete media
  Complete: 0.3893
[2]; [14]
  Cholesterol-free media + simvastatin (0.04 μM): 1.672
[2]; [15]
  Complete Media: 1.494
[2]; [16]
  Difference: −0.18

## O=C(O)c1ccccc1O [Salicylic acid]
[1]; [17]
  Difference: −0.09
[1]; [18]
  Cholesterol-free: 0.9773
[1]; [11]
  Complete: 0.8829
[2]; [6]
  Cholesterol-free media + simvastatin (0.04 μM): 0.9788
[2]; [11]
  Complete Media: 0.8703
[2]; [16]
  Difference: −0.11

## CC[C@H]1OC(=O)[C@H](C)C(=O)[C@H](C)[C@@H](O[C@@H]2O[C@H](C)C[C@H](N(C)C)[C@H]2O)[C@](C)(OC)C[C@@H](C)C(=O)[C@H](C)[C@H]2N(CCCCn3cnc(-c4cccnc4)c3)C(=O)O[C@]12C [Telithromycin]
[1]; [3]
  Difference: −0.51
[1]; [4]
  Cholesterol-free: 1.316
[1]; [5]
  Complete: 0.8019
[2]; [19]
  Cholesterol-free media + simvastatin (0.04 μM): 0.872
[2]; [20]
  Complete Media: 0.854
[2]; [7]
  Difference: −0.02

## CNC[C@H](O)c1ccc(O)c(O)c1.O=C(O)C(O)C(O)C(=O)O [L-Epinephrine (Bitartrate)]
[1]; [17]
  Difference: −0.14
[1]; [18]
  Cholesterol-free: 1.247
[1]; [11]
  Complete: 1.112
[2]; [21]
  Cholesterol-free media + simvastatin (0.04 μM): 1.096
[2]; [22]
  Complete Media: 1.136
[2]; [12]
  Difference: 0.04

## CC[C@H](C)[C@H](N)C(=O)O [L-Isoleucine]
[1]; [8]
  Difference: 0.06
[1]; [9]
  Cholesterol-free: 1.023
[1]; [10]
  Complete: 1.082
[2]; [6]
  Cholesterol-free media + simvastatin (0.04 μM): 2.302
[2]; [7]
  Difference: −1.28

## COc1ccc(C(=O)c2ccccc2)c(O)c1 [Oxybenzone]
[1]; [8]
  Difference: −0.29
[1]; [13]
  Cholesterol-free: 1.383
[1]; NCI-H292 cells, complete media
  Complete: 1.094
[2]; [14]
  Cholesterol-free media + simvastatin (0.04 μM): 1.175
[2]; [15]
  Complete Media: 0.918
[2]; [16]
  Difference: −0.26

## CN1CCC(=C2c3ccccc3CCn3c(C=O)cnc32)CC1 [Alcaftadine]
[1]
  Cholesterol-free: 1.45
  Complete: 1.003
  Difference: −0.45
[2]
  Cholesterol-free media + simvastatin (0.04 μM): 1.165
  Complete Media: 0.9908
  Difference: −0.17

## CC(C)OC(=O)[C@H](C)N[P@](=O)(OC[C@H]1O[C@@H](n2ccc(=O)[nH]c2=O)[C@](C)(F)[C@@H]1O)Oc1ccccc1 [Sofosbuvir]
[1]; [13]
  Cholesterol-free: 1.138
[1]; NCI-H292 cells, complete media
  Complete: 0.6875
[1]; complete vs cholesterol-free media, […]
  Difference: −0.45
[2]; [19]
  Cholesterol-free media + simvastatin (0.04 μM): 0.9955
[2]; [20]
  Complete Media: 0.9628
[2]; complete media minus cholesterol-free media + simvastatin (0.04 μM), […]
  Difference: −0.03

## O=[N+]([O-])C(Br)(CO)CO [Bronopol]
[1]; [3]
  Difference: −0.52
[1]; [4]
  Cholesterol-free: 1.461
[1]; [5]
  Complete: 0.9389
[2]; [21]
  Cholesterol-free media + simvastatin (0.04 μM): 0.8221
[2]; [22]
  Complete Media: 0.9082
[2]; [12]
  Difference: 0.09

## NC(=O)C(c1ccccc1)(c1ccccc1)[C@@H]1CCN(CCc2ccc3c(c2)CCO3)C1 [Darifenacin (hydrobromide)]
[1]; [17]
  Difference: −0.11
[1]; [18]
  Cholesterol-free: 1.186
[1]; [11]
  Complete: 1.075
[2]; [6]
  Cholesterol-free media + simvastatin (0.04 μM): 1.197
[2]; [11]
  Complete Media: 1.073
[2]; [16]
  Difference: −0.12

## Nc1cc(Cl)c(N=C2NCCN2)c(Cl)c1 [Apraclonidine (hydrochloride)]
[1]; NCI-H292 cells, complete media
  Complete: 1.213
[1]; complete vs cholesterol-free media, greater than 0 enhanced anti-cancer activity, about 0 neutral, below 0 antagonists
  Difference: −0.41
[2]; NCI-H292 cells, FDA library drug in cholesterol-free media with simvastatin 0.04 μM
  Cholesterol-free media + simvastatin (0.04 μM): 1.345
[2]; NCI-H292 cells, FDA library drug in complete media
  Complete Media: 1.018
[2]; [16]
  Difference: −0.33
